Assay results published in patent publication US5180716A, “Cyclodextrin complexes for neuraxial administration of drugs” (The Regents of the University of California, priority 1990, dated 1993).

Key:
[1] = tested on: calcitonin gene-related peptide (CGRP); conditions: rat, in vivo
Procedure: (§1) Lumbar intrathecal injections--rats: Rats (250-350 gm) were prepared with chronic intrathecal catheters placed in the lumbar intrathecal space. They received intrathecal administration of 15 μl of 25% CDEX. […] At 7 days, the levels of neuropeptides substance P and calcitonin gene-related peptide (CGRP) were measured after extraction of tissue, using radioimmunoassays.

substance P = conditions: rat, in vivo
Procedure: as §1

[2] = rat, in vivo
[3] = guinea pig, in vivo
[4] = dog, in vivo
[5] = oral administration; cited from earlier work

C[S+](C)[O-] [dimethyl sulfoxide]
tissue level of CGRP [1]: significant reduction
tissue level of substance P (substance P): significant reduction

2-hydroxypropyl-β-cyclodextrin [CDEX]
EEG activity [2]: no effect
general motor behavior [2]: no effect
acute behavioral signs of agitation (irritation) [3]: no acute behavioral signs of agitation
motor function (placing, stepping and righting reflexes or ambulatory tests) [3]: no changes
urine staining [3]: No evidence of urine staining
bladder function [4]: no effect
heart rate [4]: no effect
skin twitch response [4]: no effect
toxicity [4]: lack of toxicity

CS(=O)(=O)OCCCCOS(C)(=O)=O [Busulfan, busulfan]
bone marrow depression [5]: severe bone marrow depression
